Test results taken from patent publication US20150230474A1, “Use of Glyphosate to Control Clubroot Disease” (priority 2014, published 2015).
Entries after “also recorded” stand apart in the source; their conditions may differ.

Assays:
[1] = system: Plasmodiophora brassicae; assay: Treatment of canola seedlings: potting mix irrigated with glyphosate solution, then inoculated with P. brassicae spores; format: in vivo; conditions: 572 mg/pot glyphosate, 15 days post-inoculation, VT500G canola
Description: (§1) An isolate of clubroot pathogen Plasmodiophora brassicae was obtained from infested canola fields in central Alberta. The pathogen population from this collection may represent a mixture of pathotypes, but pathotype 3 is expected to be predominant (Peng et al., 2011). The inoculum was propagated using a susceptible canola cv. Westar grown in the infested soil with spores. Fresh clubroot galls were harvested, air dried, and stored at 4° C., and were further used for fresh inoculum preparation. To extract spores, 2-5 g of air-dried galls were soaked in distilled water for a few hours to soften the tissues and then ground in a mortar with pestle. The resulting slurry was filtered through three layers of cheesecloth and the spore concentration was estimated under a microscope. Inoculum concentration of 1.0·10^7 resting spores/ml was used for inoculation.
Canola plants, cultivar Westar and the glyphosate-resistant transgenic line VT500G of Brassica napus, were used. Plants were grown in a phytotron at 22° C. with a light/dark photoperiod of 16 h/8 h (light intensity 120 μmol m^−2 s^−1). […]

[2] = system: Plasmodiophora brassicae; assay: Pre-seeding treatment of P. brassicae infested potting mix, VT500G canola then sown; format: in vivo; conditions: for plant growth / foliar symptoms of clubroot disease: 35 days post seeding; for early senescence: 60 days post seeding
Description: as §1
(§2) Canola plants, cultivar Westar and the Roundup®-resistant transgenic line VT500G of Brassica napus, were used. Plants were grown in a phytotron at 22° C. with a light/dark photoperiod of 16 h/8 h (light intensity 120 μmol m^−2 s^−1).
(§3) Potting mix consisting of fine peat moss, vermiculite, gypsum, dolomitic limestone and starter nutrient (Sunshine Mix #3; pH 5.8-6.2; Sun Gro Horticulture Canada Ltd., Canada) in 13 cm diameter plastic pots was inoculated with P. brassicae spores. The P. brassicae infested potting soil was then irrigated with 350 ml of water or glyphosate (Roundup®, Monsanto Canada Inc.) solution to provide an application rate of 0 mg, 143, 286, or 572 mg of glyphosate per 13 cm pot containing 750 cm3 of potting mix. VT500G canola seeds were subsequently sown on the treated potting mix and allowed to grow at 22° C. with a light/dark photoperiod of 16 h/8 h for 65 days. Plant growth and clubroot symptom development were monitored over the incubation time course.

[3] = system: VT500G canola plants; assay: Growth impediment of canola seedlings after pre-seeding glyphosate treatment of potting mix; format: in vivo, Brassica napus
Description: as §2, §3

Compound: O=C(O)CNCP(=O)(O)O [glyphosate, N-(phosphonomethyl)glycine]
- clubroot development in the root system [1]: prevented visible clubroot development
- plant growth / foliar symptoms of clubroot disease ([2]; 143 mg/pot): normal growth
- early senescence ([2]; 143 mg/pot): appeared less affected, albeit with some signs of early senescence; also recorded: showed an early senescence
- silique/seed production ([2]; 143 mg/pot, 65 days post seeding): Abortions of silique development were frequently observed
- plant growth / foliar symptoms of clubroot disease ([2]; 286 mg/pot): normal growth
- early senescence ([2]; 286 mg/pot): did not display early senescence
- silique/seed production ([2]; 286 mg/pot, 65 days post seeding): normal silique/seed production
- plant growth / foliar symptoms of clubroot disease ([2]; 572 mg/pot): normal growth
- early senescence ([2]; 572 mg/pot): did not display early senescence
- silique/seed production ([2]; 572 mg/pot, 65 days post seeding): normal silique/seed production
- plant survival ([2]; all glyphosate treatments (143, 286, 572 mg/pot), 65 days post seeding): all glyphosate treated plants had survived
- incidence of clubroot disease ([2]; drench application of glyphosate pesticide solution to inoculated potting mix, glyphosate-resistant canola): reduced the incidence of clubroot disease
- chlorosis of leaves ([3]; 572 mg/pot, 12 days post seeding): light chlorosis on true leaves
- growth retardation ([3]; 572 mg/pot, 22 days post seeding): slightly retarded growth
- growth impediment of seedlings ([3]; glyphosate-treated seedlings, early stages): Some growth retardation; also recorded: some growth impediment
